Test results reported in patent US20200163984A1, “USE OF ISOVALERYL SPIRAMYCIN I, II AND/OR III IN MANUFACTURING MEDICAMENT FOR TREATING AND/OR PREVENTING TUMOR, AND MEDICAMENT” (SHENYANG FUYANG PHARMACEUTICAL TECHNOLOGY CO., LTD., priority 2017, published 2020).

How the values were obtained:
[1] = tested on: NK cell activity of spleen cells against K562 cells; test: Natural killer (NK) cell activity of Lewis lung cancer tumor-bearing mice; format: in vivo, C57BL/6 mouse
Experimental: In the Lewis lung cancer model, the mice inoculated with the tumor were randomly divided into groups with 10 mice in each group the next day of inoculation. The groups included: a model control group, a positive drug cyclophosphamide control group (CTX, 30 mg/kg), isovaleryl spiramycin I groups with doses of 13, 26 and 52 mg/kg; isovaleryl spiramycin II groups with doses of 13, 26 and 52 mg/kg; isovaleryl spiramycin III groups with doses of 13, 26 and 52 mg/kg. Each group was continuously administered intragastrically for 15 days with a dose of 20 ml/kg.
The serum-free RPMI 1640 medium was placed in a dish, and then the dish was placed on ice. The spleen was aseptically taken and gently ground with a sterile glass slide to prepare a single cell suspension. The single cell suspension was filtered with a double-layer sterile gauze, washed twice with serum-free RPMI1640 medium, and centrifuged at 1,500 rpm for 5 min to remove the obtained supernatant. 2 mL of red blood cell lysate was added to the treated suspension, the mixture was allowed to stand for 2 min, and then 8 mL of RPMI 1640 medium was added, centrifuging was performed at 1,500 rpm for 5 min to remove the obtained supernatant, and then washing was performed twice with the RPMI 1640 medium. […] A single cell suspension was prepared by using a RPMI 1640 medium containing 10% fetal bovine serum.
The spleen cell suspension was taken, and the cell density was adjusted to 1×10^7/mL (effector cells). A suspension of K562 cells was prepared with a cell density of 1×10^5/mL (target cells). Each mouse was set with: A. effector cells:target cell well (quantity ratio 20:1) to which […] of spleen cell suspension and 100 μL of K562 cell suspension were added; B. an effector cell control well to which 100 μL of spleen cell suspension and 100 μL of RPMI 1640 medium were added; and C. a target cell control well to which 100 μL of K562 cell suspension and 100 μL of RPMI 1640 medium were added. The above cells were added to a 96-well plate. After the 96-well plate was transferred to a saturated humidity condition with a volume fraction of 5% CO2 at 37° C. for incubation for 22 h, 10 μL of MTT solution (5 g/L) was added to each well, and incubation was continued to be performed for 4 hours under the same conditions, then the culture was terminated. 100 μl of a triple solution (SDS 10 g, 10M HCl 0.1 mL, isobutanol 5 mL, diluted with distilled water to 100 mL) was added, and the plate was shaken for 10 min to fully dissolve the crystals, and the Optical Density (OD) of each well at 490 nm was measured, and the NK cell activity was calculated. NK cell activity (%)=[TO−(S−E)]/TO×100%, wherein TO is the Optical Density of the target cell control well, S is the Optical Density of the effector cell control well, and E is the Optical Density of the effector cell.

[2] = tested on: transplanted tumor of mouse H22 liver cancer; test: Transplanted tumor of mouse H22 liver cancer; conditions: for Tumor Volume (mm3) (d30): d 30; for Body Weight (g) (d1) / Body Weight (g) (d 7): mouse, in vivo
Experimental: The H22 cell strains cryopreserved in liquid nitrogen were resuscitated in Kunming mice. After 3 generations, the ascites of Kunming mice were taken and placed in a 50 ml centrifuge tube in which 10 ml of 0.9% normal saline was added, and then centrifuging was performed at 1000 rpm for 5 min at room temperature, and the obtained supernatant was removed. Then 10 ml of 0.9% normal saline was added to the tube to blow and mix well, and then the mixture was diluted to 5×10^6 live cells/ml with normal saline after counting. The tube was stored in ice water, and 75% ethanol was used to disinfect the skin under the right armpits of the mice. Each Kunming mouse was soon inoculated subcutaneously with 0.2 ml of the cells at the armpit of the right forelimb.
In the H22 liver cancer model, the mice inoculated with the tumor were randomly divided into groups with 10 mice in each group on the next day of inoculation. The groups included: a model control group, a positive drug cyclophosphamide control group (CTX, 26 mg/kg), isovaleryl spiramycin I groups with doses of 13, 26 and 52 mg/kg; isovaleryl spiramycin II groups with doses of 13, 26 and 52 mg/kg; isovaleryl spiramycin III groups with doses of 13, 26 and 52 mg/kg. Each group was continuously administered intragastrically for 7 days with a dose of 20 ml/kg.
The tumor-bearing mice were weighed and sacrificed the next day after the last administration. The subcutaneous tumors were dissected and weighed. The average tumor weight of each group is calculated, and the tumor inhibition rate is calculated.
Tumor inhibition rate=(1−T/C)×100%
T: average tumor weight of the drug-administered group; C: average tumor weight of the blank control group.

## CCC(=O)O[C@@H]1CC(=O)O[C@H](C)C/C=C/C=C/[C@H](O[C@H]2CC[C@H](N(C)C)[C@@H](C)O2)[C@H](C)C[C@H](CC=O)[C@H](O[C@@H]2O[C@H](C)[C@@H](O[C@H]3C[C@@](C)(O)[C@@H](OC(=O)CC(C)C)[C@H](C)O3)[C@H](N(C)C)[C@H]2O)[C@H]1OC [Isovaleryl spiramycin III, isovaleryl spiramycin III]
[1]; 13 mg/kg
  NK Cell Activity: 48.9 ± 6.6%
[1]; 26 mg/kg
  NK Cell Activity: 46.0 ± 11.8%
[1]; 52 mg/kg
  NK Cell Activity: 49.8 ± 6.2%
[1]; 13, 26 and 52 mg/kg, P<0.01
  NK cell activity compared with the control group: significantly increase
[2]; 13, 26 and 52 mg/kg i.g. 7 days
  growth of H22 liver cancer in mice: significantly inhibit
[2]; dose 12.5 mg/kg
  Relative Tumor Proliferation Rate (T/C): 69.68
  Relative Tumor Volume (RTV): 6.92 ± 1.88
  Tumor Volume (mm3) (d 1): 121.58 ± 13.44 mm3
  Tumor Volume (mm3) (d30): 824.36 ± 143.90 mm3
[2]; dose 13 mg/kg
  Inhibition Rate (%): 33.55%
  Tumor: 1.01 ± 0.22 g
[2]; dose 25 mg/kg
  Relative Tumor Proliferation Rate (T/C): 56.90
  Relative Tumor Volume (RTV): 5.65 ± 1.74
  Tumor Volume (mm3) (d 1): 118.16 ± 21.72 mm3
  Tumor Volume (mm3) (d30): 650.32 ± 171.23 mm3
[2]; dose 26 mg/kg
  Inhibition Rate (%): 44.08%
  Tumor: 0.85 ± 0.34 g
[2]; dose 50 mg/kg
  Relative Tumor Proliferation Rate (T/C): 43.45
  Relative Tumor Volume (RTV): 4.31 ± 1.65
  Tumor Volume (mm3) (d 1): 122.15 ± 49.44 mm3
  Tumor Volume (mm3) (d30): 468.19 ± 110.04 mm3
[2]; dose 52 mg/kg
  Inhibition Rate (%): 51.97%
  Tumor: 0.73 ± 0.45 g
[2]; 13 mg/kg
  Body Weight (g) (d1): 23.67 ± 3.73 g
  Body Weight (g) (d 7): 26.33 ± 1.43 g
[2]; 26 mg/kg
  Body Weight (g) (d1): 24.13 ± 1.46 g
  Body Weight (g) (d 7): 27.47 ± 1.21 g
[2]; 52 mg/kg
  Body Weight (g) (d1): 24.32 ± 1.12 g
  Body Weight (g) (d 7): 27.35 ± 0.80 g
